DBAASP
≈ marks a conversion by molar mass, not a printed value. Where “and” joins values, the source holds several entries; their conditions need not be identical. Equal entries are not always repeated.

Key:
Assay in all cases: ≥ marks a high value that may be exact or a test limit, other limits are often not marked, values filed in µg/mL are converted to µM
[1] = test system: Pseudomonas aeruginosa ATCC 27853
[2] = test system: Staphylococcus epidermidis
[3] = test system: Bacillus subtilis ATCC 6633
Proteus mirabilis = test system: Proteus mirabilis
[4] = test system: Stenotrophomonas maltophilia ATCC 13637
[5] = test system: Staphylococcus aureus ATCC 25923
[6] = test system: Escherichia coli ATCC 25922
[7] = test system: Candida albicans ATCC 90112
Streptococcus pyogenes = test system: Streptococcus pyogenes
[8] = test system: Micrococcus luteus ATCC 10240
[9] = test system: Bacillus licheniformis X39
[10] = test system: Rhodococcus rhodochrous X15
Serratia rubidaea X01 = test system: Serratia rubidaea X01
[11] = test system: Enterococcus faecalis 981
[12] = test system: Psychrobacter faecalis X29
[13] = test system: Staphylococcus carnosus KHS
[14] = test system: Staphylococcus aureus 274/08
[15] = test system: Escherichia coli ATCC 25726
[16] = test system: Staphylococcus aureus T4/6
[17] = test system: Staphylococcus aureus S908
[18] = test system: Acinetobacter baumannii I NM8
[19] = test system: Staphylococcus aureus 145/08
[20] = test system: Staphylococcus aureus 127/08
[21] = test system: Staphylococcus aureus V4180
[22] = test system: Candida albicans ATCC 90028
[23] = test system: Klebsiella pneumoniae ATCC 700603
[24] = test system: Staphylococcus aureus ΔmprF
[25] = test system: Staphylococcus aureus ΔmprFpRBsyn
[26] = test system: Staphylococcus aureus 28841
[27] = test system: Salmonella enterica serovar typhimurium MS7953s
[28] = test system: Enterococcus faecium 94-132
Klebsiella pneumoniae = test system: Klebsiella pneumoniae
Escherichia coli ML-35p = test system: Escherichia coli ML-35p
[29] = test system: Candida albicans ATCC 10231
[30] = test system: Enterococcus faecalis CDC 21
[31] = test system: Staphylococcus aureus 930918-3
Escherichia coli BAS 849 = test system: Escherichia coli BAS 849
[32] = test system: Staphylococcus aureus 30371
[33] = test system: Listeria monocytogenes EGD
[34] = test system: Pseudomonas aeruginosa MR3007
[35] = test system: Salmonella enterica subsp. enterica serovar Typhimurium ATCC 14028s
[36] = test system: Pseudomonas aeruginosa SBI-N
[37] = test system: Enterococcus faecalis ATCC 29212
[38] = test system: Pseudomonas aeruginosa MR2123
Enterococcus faecium = test system: Enterococcus faecium

Which results are given for CC[C@H](C)[C@H](NC(=O)[C@H](CC(=O)O)NC(=O)[C@@H](N)Cc1ccccc1)C(=O)N[C@@H](CCSC)C(=O)NCC(=O)N[C@@H](CC(C)C)C(=O)N[C@H](C(=O)N[C@@H](CCCCN)C(=O)N[C@@H](CCCCN)C(=O)N[C@H](C(=O)N[C@@H](C)C(=O)NCC(=O)N[C@@H](C)C(=O)N[C@@H](CC(C)C)C(N)=O)C(C)C)[C@@H](C)CC [FDIMGLIKKVAGAL]?
MIC [1]: > 30 µM; MIC [2]: 30 µM (≈ 44.2 µg/mL); MIC [3]: 30 µM (≈ 44.2 µg/mL); MIC (Proteus mirabilis): ≥ 60 µM; MIC [4]: 30 µM (≈ 44.2 µg/mL); MIC [5]: 30 µM (≈ 44.2 µg/mL); MIC [6]: 30 µM (≈ 44.2 µg/mL); MIC [7]: 7.5 µM (≈ 11.1 µg/mL); MIC (Streptococcus pyogenes): 30 µM (≈ 44.2 µg/mL); MIC [8]: 30 µM (≈ 44.2 µg/mL)

Which results are given for CC(C)C[C@H](NC(=O)[C@H](CC(C)C)NC(=O)CNC(=O)[C@H](CCCCN)NC(=O)[C@H](CC(C)C)NC(=O)[C@H](CC(C)C)NC(=O)[C@H](CC(N)=O)NC(=O)CNC(=O)[C@@H](NC(=O)[C@H](Cc1ccccc1)NC(=O)[C@@H]1CCCN1C(=O)[C@H](CC(C)C)NC(=O)[C@@H](N)Cc1ccccc1)C(C)C)C(N)=O [FLPFVGNLLKGLL]?
MIC [9]: 19 µM (≈ 27.2 µg/mL); MIC [10]: 9 µM (≈ 12.9 µg/mL); MIC (Serratia rubidaea X01): ≥ 75 µM; MIC [11]: 19 µM (≈ 27.2 µg/mL); MIC [12]: ≥ 75 µM; MIC [5]: 9 µM (≈ 12.9 µg/mL); MIC [13]: 19 µM (≈ 27.2 µg/mL)

What does the source list for CC(C)C[C@H](NC(=O)CNC(=O)[C@H](CC(C)C)NC(=O)[C@H](CCCCN)NC(=O)[C@H](CC(C)C)NC(=O)[C@H](CC(C)C)NC(=O)[C@@H]1CCCN1C(=O)CNC(=O)[C@H](CC(C)C)NC(=O)[C@H](Cc1ccccc1)NC(=O)CN)C(=O)N[C@@H](CCCCN)C(=O)NCC(=O)N[C@@H](C)C(=O)N[C@@H](C)C(=O)N[C@@H](CCCCN)C(=O)N[C@@H](CC(C)C)C(=O)N[C@@H](CC(C)C)C(=O)N1CCC[C@H]1C(=O)N[C@@H](CCC(N)=O)C(=O)N[C@@H](CC(C)C)C(=O)N[C@@H](CC(C)C)C(=O)N1CCC[C@H]1C(=O)N[C@@H](CO)C(=O)N[C@@H](CCCN=C(N)N)C(=O)N[C@@H](CCC(N)=O)C(=O)N[C@@H](CCC(N)=O)C(=O)O [GFLGPLLKLGLKGAAKLLPQLLPSRQQ]?
MIC [1]: 25 µM (≈ 71.4 µg/mL); MIC [14]: 2.5 µM (≈ 7.14 µg/mL); MIC [15]: ≥ 50 µM; MIC [16]: 2.5 µM (≈ 7.14 µg/mL); MIC [17]: 2.5 µM (≈ 7.14 µg/mL); MIC [18]: 6 µM (≈ 17.1 µg/mL); MIC [19]: 2.5 µM (≈ 7.14 µg/mL); MIC [20]: 2.5 µM (≈ 7.14 µg/mL); MIC [21]: 2.5 µM (≈ 7.14 µg/mL); MIC [22]: 12.5 µM (≈ 35.7 µg/mL); MIC [23]: 50 µM (≈ 143 µg/mL); MIC [5]: 2.5 µM and 6 µM

What does the source list for CC(C)C[C@H](NC(=O)[C@@H](NC(=O)CNC(=O)[C@H](CCCN=C(N)N)NC(=O)[C@@H](NC(=O)[C@H](CCCN=C(N)N)NC(=O)[C@@H](NC(=O)[C@H](Cc1ccc(O)cc1)NC(=O)[C@H](C)NC(=O)[C@H](Cc1ccc(O)cc1)NC(=O)[C@@H](NC(=O)[C@H](CO)NC(=O)[C@H](Cc1c[nH]c2ccccc12)NC(=O)[C@@H](N)CCCN=C(N)N)C(C)C)C(C)C)C(C)C)C(C)C)C(=O)N[C@H](C(=O)N[C@@H](CCCN=C(N)N)C(=O)N[C@@H](Cc1ccc(O)cc1)C(=O)N[C@@H](CCCN=C(N)N)C(=O)N[C@@H](CCCN=C(N)N)C(=O)N[C@@H](CO)C(=O)N[C@@H](Cc1c[nH]c2ccccc12)C(=O)O)C(C)C [RWSVYAYVRVRGVLVRYRRSW]?
MIC [24]: 2.93 µM (≈ 8 µg/mL); MIC [25]: 2.93 µM and 5.86 µM

Which MIC [26] does the source give for CC[C@H](C)[C@H](N=C(O)[C@H](CCCCN)N=C(O)CN=C(O)[C@H](CC(C)C)N=C(O)[C@H](Cc1ccccc1)N=C(O)[C@H](CCC(=N)O)N=C(O)[C@H](Cc1ccccc1)N=C(O)[C@@H](N)C(C)C)C(O)=N[C@H](C(O)=N[C@@H](Cc1cnc[nH]1)C(O)=N[C@@H](Cc1cnc[nH]1)C(O)=N[C@H](C(O)=NCC(O)=N[C@@H](CC(=N)O)C(O)=N[C@@H](Cc1ccccc1)C(O)=N[C@H](C(O)=N[C@@H](Cc1cnc[nH]1)C(O)=NCC(O)=N[C@@H](Cc1ccccc1)C(O)=N[C@@H](CO)C(O)=N[C@@H](Cc1cnc[nH]1)C(O)=N[C@H](C(O)=N[C@@H](Cc1ccccc1)C(=N)O)C(C)C)C(C)C)C(C)C)[C@@H](C)CC [VFQFLGKIIHHVGNFVHGFSHVF] here?
Its MIC is 0.712 µM (≈ 1.9 µg/mL).

What about the MIC [27] of the same compound?
Its MIC is 0.15 µM (≈ 0.4 µg/mL).

What about the MIC [28] of the same compound?
The MIC was 0.075 µM (≈ 0.2 µg/mL).

What about the MIC (Klebsiella pneumoniae) of the same compound?
The MIC was 0.45 µM (≈ 1.2 µg/mL).

What about the MIC (Escherichia coli ML-35p) of the same compound?
Its MIC is 0.562 µM (≈ 1.5 µg/mL).

And the MIC [29]?
Its MIC is 48 µM and > 24 µM.

And the MIC [30]?
Its MIC is 0.225 µM (≈ 0.6 µg/mL).

What about the MIC [31] of the same compound?
The MIC was 0.637 µM (≈ 1.7 µg/mL).

And the MIC (Escherichia coli BAS 849)?
The MIC was 0.562 µM (≈ 1.5 µg/mL).

And the MIC [32]?
The MIC was 1.01 µM (≈ 2.7 µg/mL).

What about the MIC [33] of the same compound?
The MIC was 0.15 µM (≈ 0.4 µg/mL).

What about the MIC [34] of the same compound?
Its MIC is 0.412 µM (≈ 1.1 µg/mL).

And the MIC [35]?
The MIC was 0.6 µM (≈ 1.6 µg/mL).

What about the MIC [36] of the same compound?
Its MIC is 0.375 µM (≈ 1 µg/mL).

And the MIC [6]?
The MIC was 96 µM (≈ 256 µg/mL).

And the MIC [37]?
The MIC was 96 µM (≈ 256 µg/mL).

And the MIC [38]?
The MIC was 0.3 µM (≈ 0.8 µg/mL).

What about the MIC (Enterococcus faecium) of the same compound?
The MIC was 0.113 µM (≈ 0.3 µg/mL).
